Reference: ChEMBL document CHEMBL3352118, “Inhibitors of Mutant IDH for the Treatment of Cancer” (ACS Med Chem Lett, 2014)

Biological target: Isocitrate dehydrogenase [NADP] cytoplasmic (Homo sapiens, UniProt O75874, R132H)
Assay: Inhibition of IDH1 R132H mutant (unknown origin) using a-ketoglutarate as substrate by fluorescence biochemical assay

Chain of Isocitrate dehydrogenase [NADP] cytoplasmic (O75874 2-414 R132H limits assumed): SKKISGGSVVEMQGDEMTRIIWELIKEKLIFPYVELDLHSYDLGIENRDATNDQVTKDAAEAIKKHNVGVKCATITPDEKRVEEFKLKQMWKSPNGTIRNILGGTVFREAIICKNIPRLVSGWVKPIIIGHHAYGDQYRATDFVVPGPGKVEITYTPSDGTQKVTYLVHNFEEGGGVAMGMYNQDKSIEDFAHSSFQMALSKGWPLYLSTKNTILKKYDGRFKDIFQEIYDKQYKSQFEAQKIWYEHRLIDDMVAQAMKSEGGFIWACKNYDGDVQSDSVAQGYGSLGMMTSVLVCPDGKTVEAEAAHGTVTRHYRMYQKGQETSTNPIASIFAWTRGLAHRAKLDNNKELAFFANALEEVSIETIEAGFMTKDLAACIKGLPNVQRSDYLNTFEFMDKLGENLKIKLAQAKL

| SMILES | IC50 [µM] |
| --- | --- |
| C[C@H](Nc1nccc(N2C(=O)OC[C@]2(C)C2CC2)n1)c1ccc(CN2CCC(O)(C(F)(F)F)CC2)cc1F | < 0.0159 |
| C[C@H](Nc1nccc(N2C(=O)OC[C@]2(C)C2CC2)n1)c1ccc(CN2CCC(N)CC2)c(F)c1 | 0.194 |
